From US5462848A, “Color photographic materials including magenta coupler, inhibitor-releasing coupler and carbonamide compound, and methods” (Eastman Kodak Company, priority 1993, dated 1995)

Test: Potentiometric titration of dispersion pKa of couplers as aqueous dispersions
Format: physicochemical
Details: 0.50M potassium counter ion
From the text: Preferred two-equivalent magenta dye-forming couplers for the practice of this invention include those that have pKa values of less than 10.0 when dispersed together with a coupler solvent. Potentiometric titrations were used to measure pKa values for some of the preferred couplers of the invention as aqueous dispersions. In these two-phase mixtures, the term pKa denotes the aqueous buffer pH at which half of the coupler in the oil phase is ionized or ion paired. Table I lists dispersion pKa values measured with 0.50M potassium counter ion.

[1] = coupler solvent S2, coupler:solvent 1:2, aqueous dispersion
[2] = coupler solvent C5, coupler:solvent 1:1, aqueous dispersion
[3] = coupler solvent S1, coupler:solvent 1:1, aqueous dispersion

## CCCCCCCCCCCCNS(=O)(=O)c1ccc(NC2=NN(c3c(Cl)cc(Cl)cc3Cl)C(=O)C2Sc2cc(C(C)(C)CC(C)(C)C)ccc2OCCCC)c(Cl)c1 (stereo not drawn) [M1]
[1]
  pKa (0.5M K+): 8.5

## CCCCCCCCCCCCCC(=O)Nc1ccc(Cl)c(NC2=NN(c3c(Cl)cc(Cl)cc3Cl)C(=O)C2Sc2ccccc2NC(=O)C(CC)Oc2ccc(C(C)(C)CC)cc2C(C)(C)CC)c1 (stereo not drawn) [M3]
[2]
  pKa (0.5M K+): 8.2
[3]
  pKa (0.5M K+): 7.9

## CCCCCCCCCCCCNS(=O)(=O)c1ccc(NC2=NN(c3c(Cl)cc(Cl)cc3Cl)C(=O)C2Sc2ccccc2NC(=O)C(CC)Oc2ccc(C(C)(C)CC)cc2C(C)(C)CC)c(Cl)c1 (stereo not drawn) [M4]
[2]
  pKa (0.5M K+): 8.0
[3]
  pKa (0.5M K+): 7.6

## CCCCCCCCCCCCCCCC(=O)Nc1ccc(Cl)c(NC2=NN(c3c(Cl)c(Cl)c(Cl)c(Cl)c3Cl)C(=O)C2Sc2ccccc2NC(=O)OCc2ccccc2)c1 (stereo not drawn) [M7]
[1]
  pKa (0.5M K+): 7.5

## CCCCCCCCCCCCNS(=O)(=O)c1ccc(NC2=NN(c3c(Cl)cc(Cl)cc3Cl)C(=O)C2Sc2ccccc2NC(=O)CCCCCCCCCCC)c(Cl)c1 (stereo not drawn) [M8]
[1]
  pKa (0.5M K+): 7.9

## CCCCCCCCCCCCCCCCCCNS(=O)(=O)c1ccc(Cl)c(NC2=NN(c3c(Cl)cc(Cl)cc3Cl)C(=O)C2Sc2cc(C(C)C)ccc2C(C)C)c1 (stereo not drawn) [M20]
Coupler solvent C1, coupler:solvent 1:2, aqueous dispersion
  pKa (0.5M K+): 8.9
[1]
  pKa (0.5M K+): 8.4
